Measured values from patent publication US8207193B2 (priority 2006, dated 2012).
pIC50: −log10 of the molar value.

test system: not listed separately; assay: Measurement of plasma protein binding by equilibrium dialysis; conditions: 37° C., 5 μM compound

Structure (SMILES)	human plasma protein binding
O=C(C[N+]12CCC(CC1)[C@@H](OC(=O)C1(c3ccccc3)CCCCCC1)C2)Nc1cnccn1.[Br-] [Example 16, (3R)-1-[2-Oxo-2-(pyrazin-2-ylamino)ethyl]-3-{[(1-phenylcycloheptyl)carbonyl]oxy}-1-azoniabicyclo[2.2.2]octane Bromide]	94 % bound

target: human muscarinic acetylcholine M3 receptor (M3-ACh) (Homo sapiens, UniProt P20309); assay: biochemical; format: binding; conditions: M3 binding IC50
Sequence (P20309 whole entry): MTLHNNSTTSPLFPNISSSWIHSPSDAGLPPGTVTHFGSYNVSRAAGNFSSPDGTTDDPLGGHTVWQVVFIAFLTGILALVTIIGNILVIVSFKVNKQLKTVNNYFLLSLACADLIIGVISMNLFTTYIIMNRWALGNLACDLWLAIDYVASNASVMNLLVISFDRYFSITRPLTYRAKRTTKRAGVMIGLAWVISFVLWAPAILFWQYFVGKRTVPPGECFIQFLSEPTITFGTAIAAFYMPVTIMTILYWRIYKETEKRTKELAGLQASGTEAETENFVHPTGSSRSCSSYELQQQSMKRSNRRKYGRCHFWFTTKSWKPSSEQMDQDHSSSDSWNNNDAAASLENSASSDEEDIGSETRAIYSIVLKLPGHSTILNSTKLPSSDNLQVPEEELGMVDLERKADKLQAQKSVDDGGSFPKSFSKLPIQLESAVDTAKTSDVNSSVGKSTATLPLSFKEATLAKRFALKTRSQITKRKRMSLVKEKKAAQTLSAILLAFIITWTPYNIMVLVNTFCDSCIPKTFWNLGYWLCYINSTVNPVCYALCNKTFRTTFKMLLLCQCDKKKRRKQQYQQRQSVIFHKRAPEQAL

Structure (SMILES)	pIC50
O=C(C[N+]12CCC(CC1)[C@@H](OC(=O)C1(c3ccccc3)CCCCCC1)C2)Nc1cnccn1.[Br-] [Example 16, (3R)-1-[2-Oxo-2-(pyrazin-2-ylamino)ethyl]-3-{[(1-phenylcycloheptyl)carbonyl]oxy}-1-azoniabicyclo[2.2.2]octane Bromide]	> 8.70
Cc1ccc(CC[N+]23CCC(CC2)[C@@H](OC(=O)C2(c4ccccc4)CCCCCC2)C3)s1 [Example 25, (3R)-1-[2-(5-Methyl-2-thienyl)ethyl]-3-{[(1-phenylcycloheptyl)carbonyl]oxy}-1-azoniabicyclo[2.2.2]octane Bromide]	> 8.70
O=C(O[C@H]1C[N+]2(CCc3ccc4c(c3)OCO4)CCC1CC2)C1(c2ccccc2)CCCCCC1 [Example 28, (3R)-1-[2-(1,3-Benzodioxol-5-yl)ethyl]-3-{[(1-phenylcycloheptyl)carbonyl]oxy}-1-azoniabicyclo[2.2.2]octane bBromide]	> 8.70
NC(=O)C[N+]12CCC(CC1)[C@@H](OC(=O)C1(c3ccccc3)CCCCCC1)C2 [Example 36, (3R)-1-(2-Amino-2-oxoethyl)-3-{[(1-phenylcycloheptyl)carbonyl]oxy}-1-azoniabicyclo[2.2.2]octane Bromide]	> 8.70
O=C(C[N+]12CCC(CC1)[C@@H](OC(=O)C1(c3ccccc3)CCCCCC1)C2)Nc1cccnn1 [Example 17, (3R)-1-[2-Oxo-2-(pyridazin-3-ylamino)ethyl]-3-{[(1-phenylcycloheptyl)carbonyl]oxy}-1-azoniabicyclo[2.2.2]octane Bromide]	> 8.70
O=C(O[C@H]1C[N+]2(CCc3cccc(Cl)c3)CCC1CC2)C1(c2ccccc2)CCCCCC1 [Example 35, (3R)-1-[2-(3-Chlorophenyl)ethyl]-3-{[(1-phenylcycloheptyl)carbonyl]oxy}-1-azoniabicyclo[2.2.2]octane bromide]	> 8.70
O=C(O[C@H]1C[N+]2(CCc3cccc(C(F)(F)F)c3)CCC1CC2)C1(c2ccccc2)CCCCCC1 [Example 27, (3R)-3-{[(1-Phenylcycloheptyl)carbonyl]oxy}-1-{2-[3-(trifluoromethyl)phenyl]ethyl}-1-azoniabicyclo[2.2.2]octane Bromide]	> 8.70
O=C(O[C@H]1C[N+]2(CCc3ccccc3)CCC1CC2)C1(c2ccccc2)CCCCCC1 [Example 26, (3R)-3-{[(1-Phenylcycloheptyl)carbonyl]oxy}-1-(2-phenylethyl)-1-azoniabicyclo[2.2.2]octane Bromide]	> 8.70
O=C(O[C@H]1C[N+]2(CCOCc3ccccc3)CCC1CC2)C1(c2ccccc2)CCCCCC1 [Example 12, (3R)-1-[2-(Benzyloxy)ethyl]-3-{[(1-phenylcycloheptyl)carbonyl]oxy}-1-azoniabicyclo[2.2.2]octane Bromide]	> 8.70
O=C(O[C@H]1C[N+]2(CC3(c4ccc(Cl)cc4)CC3)CCC1CC2)C1(c2ccccc2)CCCCCC1 [Example 32, (3R^5)-1-{[1-(4-Chlorophenyl)cyclopropyl]methyl}-3-{[(1-phenylcycloheptyl)carbonyl]oxy}-1-azoniabicyclo[2.2.2]octane Bromide]	8.00 to 8.70
O=C(C[N+]12CCC(CC1)[C@@H](OC(=O)C1(c3ccccc3)CCCCCC1)C2)Nc1ccon1 [Example 4, (3R)-1-[2-(Isoxazol-3-ylamino)-2-oxoethyl]-3-{[(1-phenylcycloheptyl)carbonyl]oxy}-1-azoniabicyclo[2.2.2]octane Bromide]	> 8.70
COc1ccc(CC[N+]23CCC(CC2)[C@@H](OC(=O)C2(c4ccccc4)CCCCCC2)C3)cc1Cl [Example 38, (3R)-1-[2-(3-Chloro-4-methoxyphenyl)ethyl]-3-{[(1-phenylcycloheptyl)carbonyl]oxy}-1-azoniabicyclo[2.2.2]octane Bromide]	> 8.70

same assay, conditions: pIC50

Structure (SMILES)	pIC50
O=C(C[N+]12CCC(CC1)[C@@H](OC(=O)C1(c3ccccc3)CCCCCC1)C2)Nc1ccon1 [Example 4, (3R)-1-[2-(Isoxazol-3-ylamino)-2-oxoethyl]-3-{[(1-phenylcycloheptyl)carbonyl]oxy}-1-azoniabicyclo[2.2.2]octane Bromide]	10.20

same assay, conditions: pIC50 of comparative compounds containing a cyclohexyl (C6) ring in place of cycloheptyl (C7)

Structure (SMILES)	pIC50
C[N+]12CCC(CC1)[C@@H](OC(=O)C1(c3ccccc3)CCCCC1)C2 [compound 5, (3R)-1-Methyl-3-{[(1-phenylcyclohexyl)carbonyl]oxy}-1-azoniabicyclo[2.2.2]octane Iodide, reference compound]	7.30
